What all share (type): cell-based
One experiment deals with ER (estrogen receptor) (Homo sapiens (Human), UniProt P03372). Briefly: Inhibition of binding of E to ER (MCF-7/ERE-luciferase reporter cells). Conditions: MCF-7/ERE-luciferase cells, 0.1 nM estradiol, 24 h. Here is the method:
The compounds of the present disclosure can inhibit the binding of E (estrogen) to ER (estrogen receptor), thereby blocking the binding of the complex of E and ER to ERE (estrogen response element), and consequently the expression of downstream luciferase proteins. The inhibitory effects of the compounds of the present disclosure on the binding of E to ER was tested by using the following method.
An ERE was cloned upstream of the luciferase gene, and MCF-7/ERE-luciferase monoclonal cells were selected by transfection of MCF-7 (TCHu74, National Collection of Authenticated Cell Cultures). The MCF-7/ERE-luciferase cells were seeded into a 96-well plate with an MEM (hyclone, SH30024.01B) medium containing 10% charcoal stripped FBS (Moregate, FBSF), 1% sodium pyruvate (sigma, S8636), 1% non-essential amino acids (sigma, M7145) and 500 μg/mL G418 at a density of 30,000 cells/well and cultured at 37° C. with 5% CO2. 20 mM stock solutions of the drugs are prepared, serially diluted 10-fold with 100% DMSO, and then diluted 20-fold with the medium. After the cells were cultured for 24 h, the medium was removed. 0.1 nM estradiol (sigma, E2758) and 10 μL of a medium-diluted drug were added to each well, and DMSO was added to the control group. The mixtures were well mixed by gentle shaking. The cells were cultured in an incubator at 37° C. with 5% CO2 for 24 h, and then the cell culture liquid was removed, followed by the addition of 50 μL of a luciferase substrate (Promega, E6110) to each well. The plate was let stand at room temperature in the dark for 10-15 min, and the chemiluminescence signal values were determined.
The inhibitory effects of the compounds of the present disclosure on the binding of E to ER were tested through the above experiment. The chemiluminescence signal value was plotted against the compound concentration (in log form) using Graphpad Prism, and the IC50 values of the compounds were obtained.
(In general: Reporter assays use an easily measured gene product as a stand-in for the process of interest.)

The next experiment concerns MCF-7 cells. In words: Inhibition of proliferation of MCF-7 cells (ATP method, Cell Titer-Glo). To be noted: Homo sapiens, MCF7; MCF-7 cells, 72 h. Here is the method:
This experiment was intended to test the inhibitory effects of the compounds disclosed herein on the proliferation of MCF-7 Cells by using the ATP method, and to evaluate the in vitro activity of the compounds according to the IC50 values.
MCF-7 cells (TCHu74, National Collection of Authenticated Cell Cultures) were seeded into a 96-well plate with an MEM (hyclone, SH30024.01B) medium containing 10% FBS (Gibco, 10099-141), 1% sodium pyruvate (sigma, 58636) and 1% non-essential amino acid (sigma, M7145) at a density of 4,000 cells/well and cultured at 37° C. with 5% CO2. 20 mM stock solutions of the compounds are prepared, serially diluted with 100% DMSO to a final concentration of 1000×, and then diluted 20-fold with a medium containing 2% FBS. After the cells were cultured for 24 h, the medium was removed. 90 μL of the medium containing 2% FBS and 10 μL of a drug were added to each well, and 10 μL of DMSO was added to the control group. The mixtures were well mixed by gentle shaking. The blank group contained only 100 μL of the medium containing 2% FBS. The cells were cultured in an incubator at 37° C. with 5% CO2 for 72 h, and then 50 μL of mixed Cell Titer-Glo (Promega, G7571) was added to each well. The mixtures were well mixed by shaking and let stand at room temperature for 10 min, and the chemiluminescence signal values were determined.
The chemiluminescence signal value was plotted against the compound concentration (in log form) using Graphpad Prism, and the IC50 values of the compounds were obtained.

The subject of experiment [1] is ERα Y537S mutant-expressing MCF7 cells. Briefly: Inhibition of proliferation of ERα mutant-expressing MCF7 cells. Conditions: Homo sapiens, 144 h. The source says:
The mutant estrogen receptor α (ERα) Y537S of human ERα protein was obtained by site-directed mutagenesis in a two-primer PCR manner using the cDNA of wild-type ESR1 gene (Accession No. NM000125) as a template. The sequences of the primers used in the mutation are as follows (the underlined nucleotides are the sites of mutation): Y537S: F-AAGAACGTGGTGCCCCTCTCTGACCTGCTGCTGGAGATG (SEQ ID NO: 1); R-CATCTCCAGCAGCAGGTCAGAGAGGGGCACCACGTTCTT (SEQ ID NO: 2). The cDNA of the mutant ESR1 was cloned into the lentiviral vector of interest pCDH-CMV-MCS-EF1-Puro. The lentiviral plasmid bearing the mutant ESR1 gene sequence and the lentiviral packaging plasmid were then transfected into HEK-293T cells (ATCC, CRL-3216) by using Lipofectamine 3000 Transfection Reagent (ThermoFisher Scientific, Cat #L3000075). Forty-eight hours after transfection, the virus-bearing medium supernatant was filtered and ultracentrifuged to obtain a virus precipitate, which was then resuspended in an appropriate amount of medium. The suspension was added to MCF7 cells (ATCC, HTB-22), followed by the addition of polybrene at a final concentration of 8 μg/mL. The mixture was incubated overnight. Two days after transfection, 1 μg/mL puromycin was added to the cell culture liquid for resistance screening. About two weeks later, an MCF7 cell line capable of stably expressing the ERαY537S mutant was obtained.
The ERα mutant-expressing MCF7 cells were cultured in an MEM (GE Healthcare, SH30024.01) complete medium containing 10% fetal bovine serum. On the first day of the experiment, the cells were seeded into a 96-well plate with complete medium at a density of 3,000 cells/well to form 100 μL of cell suspension per well. The plate was incubated overnight in a cell incubator at 37° C. with 5% CO2. The following day the medium was removed, and 135 μL of an MEM incomplete medium containing 2% fetal bovine serum, and 15 μL of a test compound prepared at different concentrations with the incomplete medium were added to each well. The final concentrations of the compound were 9 concentration points obtained by 4-fold serial dilution from 100 nM. A blank control containing 0.5% DMSO was set. The plate was incubated in a cell incubator at 37° C. with 5% CO2 for 144 h. On day 8, the 96-well cell culture plate was taken out. 150 μL of CellTiter-Glo® Luminescent Cell Viability Assay (Promega, G7573) was added to each well. The plate was let stand at room temperature for 10 min, and the luminescence signal values was read using a multilabel microplate reader (PerkinElmer, VICTOR 3). The IC50 values for the inhibitory activity of the compounds were calculated according to the compound concentrations and the luminescence signal values and are shown in Table 3.

ER (estrogen receptor), sequence (P03372 whole entry): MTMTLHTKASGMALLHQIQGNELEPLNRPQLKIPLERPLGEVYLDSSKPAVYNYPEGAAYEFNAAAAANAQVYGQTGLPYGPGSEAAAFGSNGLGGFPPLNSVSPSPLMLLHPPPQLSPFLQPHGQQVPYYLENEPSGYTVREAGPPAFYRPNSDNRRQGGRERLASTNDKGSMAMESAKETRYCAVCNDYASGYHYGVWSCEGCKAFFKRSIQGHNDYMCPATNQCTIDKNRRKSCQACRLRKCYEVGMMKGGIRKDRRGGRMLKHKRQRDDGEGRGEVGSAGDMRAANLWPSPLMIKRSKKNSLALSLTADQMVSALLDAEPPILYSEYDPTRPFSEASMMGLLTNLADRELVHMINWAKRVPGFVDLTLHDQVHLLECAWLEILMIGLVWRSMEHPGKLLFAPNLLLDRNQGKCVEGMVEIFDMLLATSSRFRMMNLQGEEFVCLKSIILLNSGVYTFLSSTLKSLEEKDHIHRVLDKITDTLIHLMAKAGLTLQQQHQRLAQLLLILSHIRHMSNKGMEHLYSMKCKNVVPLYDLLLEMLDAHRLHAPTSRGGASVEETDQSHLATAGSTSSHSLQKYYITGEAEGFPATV

The IC50 is the concentration that gives 50% inhibition. Higher therefore signals weaker potency. For `C[C@@H]1Cc2cc3c(cc2[C@@H](c2ccc(N[C@H]4CCN(CCCF)C4)cc2)N1CC(F)(F)F)OCO3` [Example 1, (S)-1-(3-fluoropropyl)-N-(4-((5R,7R)-7-methyl-6-(2,2,2-trifluoroethyl)-5,6,7,8-tetrahydro-[1,3]dioxolo[4,5-g]isoquinolin-5-yl)phenyl)pyrrolidin-3-amine], the IC50 on ER (estrogen receptor) was 0.14 nM; in the experiment with MCF-7 cells it was 0.31 nM; in experiment [1] it was 1.38 nM.
Consider `C[C@@H]1Cc2cc3c(cc2[C@@H](c2ncc(N[C@H]4CCN(CCCF)C4)cc2F)N1CC(F)(F)CO)OCO3` [Example 11, 2,2-Difluoro-3-((5S,7R)-5-(3-fluoro-5-(((S)-1-(3-fluoropropyl)pyrrolidin-3-yl)amino)pyridin-2-yl)-7-methyl-7,8-dihydro-[1,3]dioxolo[4,5-g]isoquinolin-6(5H)-yl)propan-1-ol], for which the results for the IC50 (at ER (estrogen receptor); with MCF-7 cells; in experiment [1]) were 0.35 nM, 0.23 nM and 0.71 nM, respectively.
In the same order, the values of `C[C@@H]1Cc2cc3c(cc2[C@@H](c2ccc(NC4CN(CCCF)C4)cc2)N1CC(F)(F)CO)OCO3` [Example 18, 2,2-Difluoro-3-((5R,7R)-5-(4-((1-(3-fluoropropyl)azetidin-3-yl)amino)phenyl)-7-methyl-7,8-dihydro-[1,3]dioxolo[4,5-g]isoquinolin-6(5H)-yl)propan-1-ol] are 0.07 nM, 0.07 nM and 0.25 nM.
For the compound `C[C@@H]1Cc2cc3c(cc2[C@@H](c2ccc(N[C@H]4CCN(CCCF)C4)cc2)N1CC(F)(F)CO)OCO3` [Example 3, 2,2-Difluoro-3-((5R,7R)-5-(4-(((S)-1-(3-fluoropropyl)pyrrolidin-3-yl)amino)phenyl)-7-methyl-7,8-dihydro-[1,3]dioxolo[4,5-g]isoquinolin-6(5H)-yl)propan-1-ol], the IC50 at ER (estrogen receptor) was 0.44 nM; with MCF-7 cells, 0.15 nM; in experiment [1] it was 0.43 nM.
In the same order, the values of `C[C@@H]1Cc2cc3c(cc2[C@@H](c2c(F)cc(N[C@H]4CCN(CCCF)C4)cc2F)N1CC(F)(F)F)OCO3` [Example 2, (S)—N-(3,5-difluoro-4-((5S,7R)-7-methyl-6-(2,2,2-trifluoroethyl)-5,6,7,8-tetrahydro-[1,3]dioxolo[4,5-g]isoquinolin-5-yl)phenyl)-1-(3-fluoropropyl)pyrrolidin-3-amine] are 0.1 nM, 0.17 nM and 0.78 nM.
As to `C[C@@H]1Cc2cc3c(cc2[C@@H](c2ccc(N[C@H]4CCN(CCCF)C4)cn2)N1CC(F)(F)F)OCO3` [Example 6, N—((S)-1-(3-fluoropropyl)pyrrolidin-3-yl)-6-((5S,7R)-7-methyl-6-(2,2,2-trifluoroethyl)-5,6,7,8-tetrahydro-[1,3]dioxolo[4,5-g]isoquinolin-5-yl)pyridin-3-amine], the results for the IC50 (on ER (estrogen receptor); in the experiment with MCF-7 cells; in experiment [1]) were 0.27 nM, 0.34 nM and 0.82 nM, respectively.
Turning to `[2H]C1([2H])Oc2cc3c(cc2O1)[C@@H](c1ccc(N[C@H]2CCN(CCCF)C2)cn1)N(CC(F)(F)CO)[C@H](C)C3` [Example 12, 2,2-Difluoro-3-((5S,7R)-5-(5-(((S)-1-(3-fluoropropyl)pyrrolidin-3-yl)amino)pyridin-2-yl)-7-methyl-7,8-dihydro-[1,3]dioxolo[4,5-g]isoquinolin-6(5H)-yl-2,2-d2)propan-1-ol], the values for the IC50 (at ER (estrogen receptor); with MCF-7 cells; in experiment [1]) were 1.13 nM, 1.12 nM and 3.49 nM, respectively.
Take `C[C@@H]1Cc2cc3c(cc2[C@@H](c2ccc(NC4CN(CCCF)C4)cn2)N1CC(F)(F)F)OCO3` [Example 17, N-(1-(3-fluoropropyl)azetidin-3-yl)-6-((5S,7R)-7-methyl-6-(2,2,2-trifluoroethyl)-5,6,7,8-tetrahydro-[1,3]dioxolo[4,5-g]isoquinolin-5-yl)pyridin-3-amine]: the IC50 at ER (estrogen receptor) was 0.43 nM; in the experiment with MCF-7 cells it was 0.44 nM; in experiment [1] it was 2.19 nM.
In the same order, the values of `C[C@@H]1Cc2cc3c(cc2[C@@H](c2ccc(NC4CN(CCCF)C4)cn2)N1CC(F)(F)CO)OCO3` [Example 14, 2,2-Difluoro-3-((5S,7R)-5-(5-((1-(3-fluoropropyl)azetidin-3-yl)amino)pyridin-2-yl)-7-methyl-7,8-dihydro-[1,3]dioxolo[4,5-g]isoquinolin-6(5H)-yl)propan-1-ol] are 0.5 nM, 0.36 nM and 1.27 nM.
For the compound `C[C@@H]1Cc2cc3c(cc2[C@@H](c2ncc(N[C@H]4CCN(CCCF)C4)cc2F)N1CC(F)(F)F)OCO3` [Example 9, 5-Fluoro-N—((S)-1-(3-fluoropropyl)pyrrolidin-3-yl)-6-((5S,7R)-7-methyl-6-(2,2,2-trifluoroethyl)-5,6,7,8-tetrahydro-[1,3]dioxolo[4,5-g]isoquinolin-5-yl)pyridin-3-amine], the IC50 at ER (estrogen receptor) was 0.46 nM; in the experiment on MCF-7 cells it was 0.35 nM; in experiment [1], 1.35 nM.
In the same order, the values of `[2H]C1([2H])Oc2cc3c(cc2O1)[C@@H](c1ccc(N[C@H]2CCN(CCCF)C2)cc1)N(CC(F)(F)CO)[C@H](C)C3` [Example 19, 2,2-Difluoro-3-((5R,7R)-5-(4-(((S)-1-(3-fluoropropyl)pyrrolidin-3-yl)amino)phenyl)-7-methyl-7,8-dihydro-[1,3]dioxolo[4,5-g]isoquinolin-6(5H)-yl-2,2-d2)propan-1-ol] are 0.07 nM, 0.07 nM and 0.43 nM.
With `[2H]C1([2H])Oc2cc3c(cc2O1)[C@@H](c1ccc(NC2CN(CCCF)C2)cn1)N(CC(F)(F)CO)[C@H](C)C3` [Example 13, 2,2-Difluoro-3-((5S,7R)-5-(5-((1-(3-fluoropropyl)azetidin-3-yl)amino)pyridin-2-yl)-7-methyl-7,8-dihydro-[1,3]dioxolo[4,5-g]isoquinolin-6(5H)-yl-2,2-d2)propan-1-ol], the IC50 in the experiment with MCF-7 cells worked out at 0.29 nM; in experiment [1] it was 1.36 nM.

Source of the values: patent US12428428B2, “Tricyclic tetrahydroisoquinoline derivative, preparation method therefor and application thereof in medicine” (JIANGSU HENGRUI MEDICINE CO., LTD., priority 2020, dated 2025).
